Test results published in paper doi:10.1101/2024.02.23.581746 (2024).
Values belong to the molecule of their own block, whether it stands above or below them.

Legend:
[1] = system: F. prausnitzii PreQ1 (SHAPE-MaP) (RNA, riboswitch) GGGCCUUCGGGCCAAGGAACGCUGAAAGAGCAACUUAGGAUUUUAGGCUCCCCGGCGUGUCUCGAACCAUGCCGGGCCAAACCCAUAGGGCUGGCGGUCCCUGUGCGGUCAAAAUUCAUCCGCCGGAGUAUUGUUAUCGAUCCGGUUCGCCGGAUCCAAAUCGGGCUUCGGUCCGGUUC; test: SHAPE-MaP (2A3); settings: 100 mM KCl, 1 mM MgCl2
[2] = system: Tte-PreQ1 ab13_14_15 (RNA, riboswitch, abasic at 13, 14 and 15) CUGGGUCGCAGUNNNCCCAGUUAACAAAACAAG; test: X-ray crystallography, 2.15 Å; settings: potassium sodium tartrate 100-300 mM; sodium citrate pH 5.6, ammonium sulfate 2.0-2.6 M, 20 °C
[3] = system: L. rhamnosus PreQ1 (SHAPE-MaP) (RNA, riboswitch) GGGCCUUCGGGCCAAGGAACCGCCCCGCGCGCUUCCACGAUACUUAUUUCCUUUGAUCGUCGUUAUUACUGGCAAAGCCACAAAGGAGUCGAUCCGGUUCGCCGGAUCCAAAUCGGGCUUCGGUCCGGUUC; test: SHAPE-MaP (2A3); settings: 100 mM KCl, 1 mM MgCl2
[4] = system: Bsu PreQ1 RNA (MAGNA) (RNA, riboswitch) UCGGCGAUCUACGCAGCGACAUAAUAAGAGGUUCUAGCUACACCCUCUAUAAAAAACUAAUAACAACCACUUCCUAAUCUGUCAUCUUCUG; test: magnetic force spectroscopy (MAGNA), median unfolding force; settings: 100 mM KCl, 1 mM MgCl2; 50 mM HEPES pH 7.4, 1% DMSO, 22 °C; from refolding force 456±258 μM
[5] = system: S. pneumoniae PreQ1 (SHAPE-MaP) (RNA, riboswitch) GGGCCUUCGGGCCAACUUGGUGCUUAGCUUCUUUCACCAAGCAUAUUACACGCGGAUAACCGCCAAAGGAGAAUCGAUCCGGUUCGCCGGAUCCAAAUCGGGCUUCGGUCCGGUUC; test: SHAPE-MaP (2A3); settings: 100 mM KCl, 1 mM MgCl2
[6] = system: B. subtilis PreQ1 (SHAPE-MaP) (RNA, riboswitch) GGGCCUUCGGGCCAAGCGGGAGAGGUUCUAGCUACACCCUCUAUAAAAAACUAAGGACGAGCUGUAUCCUUGGAUACGGCCUUUUUCGAUCCGGUUCGCCGGAUCCAAAUCGGGCUUCGGUCCGGUUC; test: SHAPE-MaP (2A3); settings: 100 mM KCl, 1 mM MgCl2
[7] = system: Cy5-labeled Bsu PreQ1 aptamer (RNA, riboswitch) GCGGGAGAGGUUCUAGCUACACCCUCUAUAAAAAACUAAGGACGAGCUGUAUCCUUGGAUACGGCC; test: MST; settings: 100 mM KCl, 1 mM MgCl2, 50 mM Tris pH 7.5, room temperature, DMSO
[8] = system: Tte-PreQ1 ab13_14_15 (RNA, riboswitch, abasic at 13, 14 and 15) CUGGGUCGCAGUNNNCCCAGUUAACAAAACAAG; test: X-ray crystallography, 2.25 Å; settings: potassium sodium tartrate 100-300 mM; sodium citrate pH 5.6, ammonium sulfate 2.0-2.6 M, 20 °C
[9] = system: Cy5-labeled Bsu PreQ1 aptamer (RNA, riboswitch) GCGGGAGAGGUUCUAGCUACACCCUCUAUAAAAAACUAAGGACGAGCUGUAUCCUUGGAUACGGCC; test: Cy5 fluorescence intensity assay (text says ligand fluorescence); settings: 100 mM KCl, 1 mM MgCl2; 50 mM Tris pH 7.5, room temperature, 5% DMSO, 50 nM RNA
[10] = system: Cy5-labeled Bsu PreQ1 aptamer (RNA, riboswitch) GCGGGAGAGGUUCUAGCUACACCCUCUAUAAAAAACUAAGGACGAGCUGUAUCCUUGGAUACGGCC; test: MST (Figure S1 legend); text says ligand fluorescence; settings: 100 mM KCl, 1 mM MgCl2; 50 mM Tris pH 7.5, room temperature, DMSO
[11] = system: T. tengcongensis PreQ1 (SHAPE-MaP) (RNA, riboswitch) GGGCCUUCGGGCCAACUCACCUGGGUCGCAGUAACCCCAGUUAACAAAACAAGGGAGGUAAUUUUUCGAUCCGGUUCGCCGGAUCCAAAUCGGGCUUCGGUCCGGUUC; test: SHAPE-MaP (2A3); settings: 100 mM KCl, 1 mM MgCl2; 50 mM Tris pH 7.5, 10 μM compound
[12] = system: Bsu PreQ1 RNA (MAGNA) (RNA, riboswitch) UCGGCGAUCUACGCAGCGACAUAAUAAGAGGUUCUAGCUACACCCUCUAUAAAAAACUAAUAACAACCACUUCCUAAUCUGUCAUCUUCUG; test: magnetic force spectroscopy (MAGNA); settings: 100 mM KCl, 1 mM MgCl2; 50 mM HEPES pH 7.4, 1% DMSO, 22 °C; 500 nM called saturating
[13] = 50 mM Tris pH 7.5, 150 μM compound
[14] = 50 mM Tris pH 7.5, 10 μM compound

Compound: CNc1cc2c(=O)c3cc(O)ccc3oc2cn1
- binding ([7]; tested up to 500 μM): no

Compound: COc1ccc2c(c1)NC(=O)c1cc(N)ccc1O2
- KD [7]: 1.9 ± 0.2 µM

Compound: NCc1c[nH]c2nc(N)[nH]c(=O)c12
- binding [1, 14]: yes
- binding [11]: yes
- binding [3, 14]: yes
- binding [12]: yes
- binding [5, 14]: yes
- binding [6, 14]: yes

Second part, the molecule after the results:

- binding [1, 13]: yes
- binding [2]: yes
- binding [3, 13]: yes
- EC50 [4]: 394 ± 157 µM
- binding [5, 13]: yes
- binding [6, 13]: yes
Compound: CN(C)CCOc1ccc2oc3ccccc3c(=O)c2c1

- KD [7]: 58 ± 30 µM
Compound: CN(C)CCOc1ccc2sc3ccccc3c(=O)c2c1

- KD [7]: 18.3 ± 7.0 µM
Compound: COc1ccc2c(c1)Oc1ccc(N)cc1C(=O)N2

- binding [8]: yes
- KD [9]: 104.4 ± 20 µM
Compound: Cc1nccc2c1[nH]c1cc(OCCN(C)C)ccc12

- KD [10]: > 500 µM
Compound: NC(=O)COc1ccc2oc3ccccc3c(=O)c2c1
